Test results reported in US8883771B2, “Bivalent inhibitors of IAP proteins and therapeutic methods using the same” (The Regents of the University of Michigan, priority 2012, dated 2014).

What was measured:
[1] = test system: MDA-MB-231 breast cancer cell line; assay: Inhibition of cell growth in MDA-MB-231 breast cancer cell line; type: cell-based, human
[2] = test system: SK-OV-3 ovarian cancer cell line; assay: Inhibition of cell growth in SK-OV-3 ovarian cancer cell line; type: cell-based, human
[3] = MDA-MB-231 breast cancer cell line
[4] = SK-OV-3 ovarian cancer cell line
[5] = Homo sapiens, MDA-MB-231, MDA-MB-231 breast cancer cell line
[6] = Homo sapiens, SK-OV-3, SK-OV-3 ovarian cancer cell line
[7] = Homo sapiens, MDA-MB-231 breast cancer cell line
[8] = Homo sapiens, SK-OV-3 ovarian cancer cell line

SMILES	IC50 [1, 5]	IC50 [2, 6]	other results
CN[C@@H](C)C(=O)N[C@H]1CN(C(=O)Nc2ccc(NC(=O)N3CC[C@H]4CC[C@@H](C(=O)N[C@@H]5C[C@@H]5c5ccccc5)N4C(=O)[C@@H](NC(=O)[C@H](C)NC)C3)cc2)CC[C@H]2CC[C@@H](C(=O)N[C@@H]3C[C@@H]3c3ccccc3)N2C1=O (stereo in doubt) [Example 26]			IC50 [1, 3]: < 1000 nM; IC50 [2, 4]: < 1000 nM
CN[C@@H](C)C(=O)N[C@H]1CN(C(=O)Nc2ccc(-c3ccc(NC(=O)N4CC[C@H]5CC[C@@H](C(=O)NC(c6ccccc6)c6ccccc6)N5C(=O)[C@@H](NC(=O)[C@H](C)NC)C4)c(C)c3)cc2C)CC[C@H]2CCC(C(=O)NC(c3ccccc3)c3ccccc3)N2C1=O (some centres unmarked) [Example 15]	< 1000 nM	< 1000 nM	
CN[C@@H](C)C(=O)N[C@H]1CN(C(=S)Nc2ccc(NC(=S)N3CC[C@H]4CC[C@@H](C(=O)NC(c5ccccc5)c5ccccc5)N4C(=O)[C@@H](NC(=O)[C@H](C)NC)C3)cc2)CC[C@H]2CCC(C(=O)NC(c3ccccc3)c3ccccc3)N2C1=O (some centres unmarked) [Example 16]	< 100 nM		
CN[C@@H](C)C(=O)N[C@H]1CN(C(=O)Nc2ccc(CCc3ccc(NC(=O)N4CC[C@H]5CC[C@@H](C(=O)NC(c6ccccc6)c6ccccc6)N5C(=O)[C@@H](NC(=O)[C@H](C)NC)C4)cc3)cc2)CC[C@H]2CCC(C(=O)NC(c3ccccc3)c3ccccc3)N2C1=O (some centres unmarked) [Example 17]	< 100 nM		
CN[C@@H](C)C(=O)N[C@H]1CN(C(=S)Nc2ccc(Cc3ccc(NC(=S)N4CC[C@H]5CC[C@@H](C(=O)NC(c6ccccc6)c6ccccc6)N5C(=O)[C@@H](NC(=O)[C@H](C)NC)C4)cc3)cc2)CC[C@H]2CCC(C(=O)NC(c3ccccc3)c3ccccc3)N2C1=O (some centres unmarked) [Example 18]	< 100 nM		
CNCC(=O)N[C@H]1CN(C(=O)N2CCN(C(=O)N3CC[C@H]4CC[C@@H](C(=O)NC(c5ccccc5)c5ccccc5)N4C(=O)[C@@H](NC(=O)[C@H](C)NC)C3)CC2)CC[C@H]2CCC(C(=O)NC(c3ccccc3)c3ccccc3)N2C1=O (some centres unmarked) [Example 20]	< 10000 nM	< 10000 nM	
CN[C@@H](C)C(=O)N[C@H]1CN(C(=O)Oc2ccc(C(C)(C)c3ccc(OC(=O)N4CC[C@H]5CC[C@@H](C(=O)NC(c6ccccc6)c6ccccc6)N5C(=O)[C@@H](NC(=O)[C@H](C)NC)C4)cc3)cc2)CC[C@H]2CCC(C(=O)NC(c3ccccc3)c3ccccc3)N2C1=O (some centres unmarked) [Example 22]	< 100 nM	< 1000 nM	
CN[C@@H](C)C(=O)N[C@H]1CN(S(=O)(=O)c2cccc(S(=O)(=O)N3CC[C@H]4CC[C@@H](C(=O)NC(c5ccccc5)c5ccccc5)N4C(=O)[C@@H](NC(=O)[C@H](C)NC)C3)c2)CC[C@H]2CCC(C(=O)NC(c3ccccc3)c3ccccc3)N2C1=O (some centres unmarked) [Example 23]	< 100 nM	< 100 nM	
CN[C@@H](C)C(=O)N[C@H]1CN(C(=O)Nc2ccc(NC(=O)N3CC[C@H]4CC[C@@H](C(=O)N[C@@H]5C[C@@H]5c5ccccc5)N4C(=O)[C@@H](NC(=O)[C@H](C)NC)C3)cc2)CC[C@H]2CC[C@@H](C(=O)N[C@@H]3C[C@@H]3c3ccccc3)N2C1=O [Example 25]	< 1000 nM	< 1000 nM	
CN[C@@H](C)C(=O)N[C@H]1CN(C(=O)Nc2ccc(NC(=O)N3CC[C@H]4CC[C@@H](C(=O)N[C@H]5C[C@@H]5c5ccccc5F)N4C(=O)[C@@H](NC(=O)[C@H](C)NC)C3)cc2)CC[C@H]2CC[C@@H](C(=O)N[C@H]3C[C@@H]3c3ccccc3F)N2C1=O [Example 27]	< 5000 nM	< 5000 nM	
CN[C@@H](C)C(=O)N[C@H]1CN(C(=O)Nc2ccc(NC(=O)N3CC[C@H]4CC[C@@H](C(=O)N[C@@H]5C[C@H]5c5ccccc5)N4C(=O)[C@@H](NC(=O)[C@H](C)NC)C3)cc2)CC[C@H]2CC[C@@H](C(=O)N[C@@H]3C[C@H]3c3ccccc3)N2C1=O [Example 30]	< 10000 nM	< 10000 nM	
CN[C@@H](C)C(=O)N[C@H]1CN(C(=O)Nc2ccc(NC(=O)N3CC[C@H]4CC[C@@H](C(=O)N[C@H]5C[C@@H]5c5ccccc5)N4C(=O)[C@@H](NC(=O)[C@H](C)NC)C3)cc2)CC[C@H]2CC[C@@H](C(=O)N[C@H]3C[C@@H]3c3ccccc3)N2C1=O [Example 31]	< 1000 nM	< 1000 nM	
CN[C@@H](C)C(=O)N[C@H]1CN(C(=O)Nc2ccc(NC(=O)N3CC[C@H]4CC[C@@H](C(=O)N[C@H]5C[C@@H]5c5ccc(C(F)(F)F)cc5)N4C(=O)[C@@H](NC(=O)[C@H](C)NC)C3)cc2)CC[C@H]2CC[C@@H](C(=O)N[C@H]3C[C@@H]3c3ccc(C(F)(F)F)cc3)N2C1=O [Example 35]	< 10000 nM	< 10000 nM	
CN[C@@H](C)C(=O)N[C@H]1CN(C(=O)NCc2cccc(CNC(=O)N3CC[C@H]4CC[C@@H](C(=O)N[C@H]5C[C@@H]5c5ccccc5)N4C(=O)[C@@H](NC(=O)[C@H](C)NC)C3)c2)CC[C@H]2CCC(C(=O)N[C@H]3C[C@@H]3c3ccccc3)N2C1=O (some centres unmarked) [Example 38]	< 10000 nM	< 10000 nM	
CN[C@@H](C)C(=O)N[C@H]1CN(C(=O)NCCCCCCNC(=O)N2CC[C@H]3CC[C@@H](C(=O)N[C@H]4CCCC[C@@H]4c4ccccc4)N3C(=O)[C@@H](NC(=O)[C@H](C)NC)C2)CC[C@H]2CCC(C(=O)N[C@H]3CCCC[C@@H]3c3ccccc3)N2C1=O (some centres unmarked) [Example 39]			IC50 [1, 3]: < 1000 nM; IC50 [2, 4]: < 1000 nM
CN[C@@H](C)C(=O)N[C@H]1CN(C(=O)NCCCCCCNC(=O)N2CC[C@H]3CC[C@@H](C(=O)NC4Cc5ccccc5C4)N3C(=O)[C@@H](NC(=O)[C@H](C)NC)C2)CC[C@H]2CCC(C(=O)NC3Cc4ccccc4C3)N2C1=O (some centres unmarked) [Example 45]	< 1000 nM	< 1000 nM	
CN[C@@H](C)C(=O)N[C@H]1CN(C(=O)NCCCCCCNC(=O)N2CC[C@H]3CC[C@@H](C(=O)NCCc4ccccc4)N3C(=O)[C@@H](NC(=O)[C@H](C)NC)C2)CC[C@H]2CCC(C(=O)NCCc3ccccc3)N2C1=O (some centres unmarked) [Example 46]	< 1000 nM	< 1000 nM	
CN[C@@H](C)C(=O)N[C@H]1CN(C(=O)NCCCCCCNC(=O)N2CC[C@H]3CC[C@@H](C(=O)N[C@H]4CC[C@@H]4c4ccccc4)N3C(=O)[C@@H](NC(=O)[C@H](C)NC)C2)CC[C@H]2CCC(C(=O)N[C@H]3CC[C@@H]3c3ccccc3)N2C1=O (some centres unmarked) [Example 47]			IC50 [1, 7]: < 1000 nM; IC50 [2, 8]: < 1000 nM
CN[C@@H](C)C(=O)N[C@H]1CN(C(=O)NCCCCCCNC(=O)N2CC[C@H]3CC[C@@H](C(=O)N[C@H]4C[C@H](c5ccccc5)C4)N3C(=O)[C@@H](NC(=O)[C@H](C)NC)C2)CC[C@H]2CCC(C(=O)N[C@H]3C[C@H](c4ccccc4)C3)N2C1=O (some centres unmarked) [Example 48]			IC50 [1, 7]: < 10000 nM; IC50 [2, 8]: < 10000 nM
